For the experiment, the system named is myelofibrosis. In words: treatment of myelofibrosis, case history. The experiment is classed as in vivo, human. Conditions: following initiation of treatment; approximately every 10 days before treatment. As to the method:
This example illustrates the treatment of symptoms associated with myelofibrosis. A patient suffering from myelofibrosis was treated with a quercetin CD formulation. The formulation was prepared from a powder of quercetin (Glanbia Nutritionals) formed as an inclusion complex with gamma cyclodextrin, dried and mixed with amylase powder. At the initiation of quercetin CD treatment, the patient was in need of blood transfusions approximately every 10 days. Following initiation of the quercetin CD treatment, the patient was able to go 20 days between transfusions.

For `O=c1c(O)c(-c2ccc(O)c(O)c2)oc2cc(O)cc(O)c12` [quercetin], the “interval between blood transfusions” value is recorded as “did not get this result”.

The values above are taken from US12285455B2, “Controlled-release and stratified cyclodextrin inclusion complex vehicles” (CZAP RESEARCH AND DEVELOPMENT, LLC., priority 2016, dated 2025).
